Laboratory results as given in patent US20240277705A1, “DOSAGE REGIMENS FOR ECUBECTEDIN” (PHARMA MAR S.A., priority 2021, published 2024).

Test system: RXF 393 (renal carcinoma)
Assay: MTT cell viability assay, RXF 393
Format: cell-based
Conditions: Homo sapiens, RXF 393, 72 h; read-out: GI50, M (geometric mean, N = 3)
Excerpt: Cell lines and cell culture: The following human cancer cell lines have been used in this example (the collection code and the tissue of origin are shown in brackets): • RXF 393 (NCI) (renal carcinoma) • Caki-1 (ATCC HTB-46) (kidney clear cell carcinoma)
Cell lines were obtained from the American Type Culture Collection (ATCC) or the National Cancer Institute (NCI). Cells were maintained in the appropriate culture medium, namely: • RPMI for RXF 393 • McCoy's 5A for Caki-1
All media were supplemented with 10% FBS, 2 mM L-Glutamine and 100 units/mL of penicillin-streptomycin.
Cell viability assay: To assess the antiproliferative activity of the compounds a colorimetric assay based on 3-(4,5-Dimethylthiazol-2-yl)-2,5-diphenyltetrazolium bromide (MTT) reduction was used. […] Culture medium was then removed and 100 μL of neat DMSO added to each well to dissolve the formazan product into a coloured solution whose absorbance at 540 nm was finally measured in a PolarStar Omega microplate multilabel reader (BMG Labtech, Ortenberg, Germany). […]
GI50 is finally used as reference value. […] To define a significant (ca. 70%) confidence interval for the geometric mean, its value must be multiplied and divided by the corresponding geometric standard deviation (GSD) which was also calculated. […]

COc1c(C)cc2c(c1O)[C@@H]1[C@@H]3[C@@H]4SC[C@]5(N[C@H](CO)Cc6c5[nH]c5ccccc65)C(=O)OC[C@@H](c5c6c(c(C)c(OC(C)=O)c54)OCO6)N3[C@@H](O)[C@H](C2)N1C [PM14, ECUBECTEDIN]
GI50: 0.621 nM
